Data reported in patent publication US12600721B2, “TYK2 inhibitors and uses thereof” (Sudo Biosciences Limited, priority 2021, dated 2026).

What was measured:
TYK2 Pseudokinase (JH2) [1] = assay: HEK-Blue IL-23 reporter assay (SEAP) for profiling TYK2 pseudokinase (JH2) inhibition; format: cell-based; conditions: HEK-Blue IL-23 cells, 10 ng/mL human recombinant IL-23, SEAP reporter; read-out: IL23 IC50 (TYK2 inhibitory activity)
Method: (§1) HEK-Blue™ IL-23 and IFNα/β cells with a stably-integrated cytokine receptor and STAT3 or STAT1 express STAT-inducible secreted embryonic alkaline phosphatase (SEAP) reporter gene upon cytokine stimulation. These cells are plated in DMEM (Gibco) containing 10% heat-inactivated FBS (Gibco) and 100 U/mL PenStrep (Gibco) at 37° C. under 5% CO2 conditions for 20-22 hours. The cells are then pretreated with serially diluted test compounds for 60 min prior to stimulation with either 10 ng/mL human recombinant IL-23 (Miltenyl Biotech) or 1 ng/mL human recombinant IFNα (InvivoGen) for 22-24 hours for IL-23 or 16-18 h for IFNα. SEAP induction is measured using the QUANTI Blue™ Solution (InvivoGen) according to the manufacturer's instructions.

TYK2 Pseudokinase (JH2) [2] = assay: HEK-Blue IFNα/β reporter assay (SEAP) for profiling TYK2 pseudokinase (JH2) inhibition; format: cell-based; conditions: HEK-Blue IFNα/β cells, 1 ng/mL human recombinant IFNα, read-out: IFNα IC50 (TYK2 inhibitory activity)
Method: as §1

TYK2-JH1 = biological target: T1, TYK2-JH1 (Homo sapiens, UniProt P29597); assay: HTRF-based selectivity assay, TYK2 catalytic domain; format: biochemical; conditions: kinase domain (JH1), 20 μM ATP
T1 construct: using a recombinant purified His or GST-tagged catalytic domain for each enzyme; made in house
T1 sequence (P29597 897-1176 limits assumed): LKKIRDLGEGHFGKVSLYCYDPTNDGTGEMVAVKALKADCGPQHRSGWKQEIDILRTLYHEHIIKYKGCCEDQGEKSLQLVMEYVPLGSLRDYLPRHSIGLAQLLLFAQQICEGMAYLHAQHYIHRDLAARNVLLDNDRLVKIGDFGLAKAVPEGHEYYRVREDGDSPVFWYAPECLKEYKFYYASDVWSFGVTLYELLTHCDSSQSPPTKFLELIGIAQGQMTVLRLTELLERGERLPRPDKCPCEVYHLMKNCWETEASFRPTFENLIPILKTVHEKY
Method: (§2) The ability of compounds to inhibit the activity of JAK1, JAK2, JAK3 and TYK2 is measured using a recombinant purified His or GST-tagged catalytic domain for each enzyme (JAK1, JAK2 and TYK2 are generated in-house; JAK3 was purchased from Carna biosciences, Cat #08-046) in an HTRF format biochemical assay. The reactions employs a commercial peptide substrate from Cisbio (Cat #62TK0PEC). The basic assay protocol is as follows: first, 2.5 μL of diluted compounds (4×) in DMSO are dispensed into a 384-well Optiplate. Next, 2.5 μL of enzyme (final concentrations for enzymes are: TYK2-700 ng/mL, JAK1-80.6 ng/ml, JAK2-2.1 ng/ml and JAK3-171.8 ng/mL) is added and incubated at RT for 5-20 min. Finally, 5 μl of mixture of 2×ATP [Final concentration 20 μM for TYK2, 21.43 μM for JAK1, 14.7 μM for JAK2 and 2.12 μM for JAK3]+2× Substrate [Final concentration 217 nM for TYK2, 454.7 nM for JAK1, 200 nM for JAK2 and 257.4 nM for JAK3] is added to 384 well Optiplate. Composition of Kinase assay buffer used in the assay is as follows: HEPES 50 mM, EGTA 1 mM, MgCl2 10 mM, DTT 2 mM, Tween-20 0.01% and water. Then the plates are shaken and then incubated at 26.5° C. for 60 min.

JAK1-JH1 = biological target: T2, JAK1-JH1 (Homo sapiens, UniProt P23458); assay: HTRF-based selectivity assay, JAK1 catalytic domain; format: biochemical; conditions: kinase domain (JH1), 21.43 μM ATP
T2 construct: using a recombinant purified His or GST-tagged catalytic domain for each enzyme; made in house
T2 sequence (P23458 875-1153 limits assumed): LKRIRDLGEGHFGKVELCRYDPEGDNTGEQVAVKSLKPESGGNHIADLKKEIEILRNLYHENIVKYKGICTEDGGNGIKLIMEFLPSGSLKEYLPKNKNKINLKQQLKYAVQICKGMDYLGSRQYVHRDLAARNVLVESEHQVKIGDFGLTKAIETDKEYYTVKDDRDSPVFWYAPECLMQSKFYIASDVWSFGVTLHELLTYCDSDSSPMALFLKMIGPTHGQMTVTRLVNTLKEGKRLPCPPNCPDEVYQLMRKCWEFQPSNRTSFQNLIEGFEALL
Method: as §2

JAK2-JH1 = biological target: T3, JAK2-JH1 (Homo sapiens, UniProt O60674); assay: HTRF-based selectivity assay, JAK2 catalytic domain; format: biochemical; conditions: kinase domain (JH1), 14.7 μM ATP
T3 construct: using a recombinant purified His or GST-tagged catalytic domain for each enzyme; made in house
T3 sequence (O60674 849-1124 limits assumed): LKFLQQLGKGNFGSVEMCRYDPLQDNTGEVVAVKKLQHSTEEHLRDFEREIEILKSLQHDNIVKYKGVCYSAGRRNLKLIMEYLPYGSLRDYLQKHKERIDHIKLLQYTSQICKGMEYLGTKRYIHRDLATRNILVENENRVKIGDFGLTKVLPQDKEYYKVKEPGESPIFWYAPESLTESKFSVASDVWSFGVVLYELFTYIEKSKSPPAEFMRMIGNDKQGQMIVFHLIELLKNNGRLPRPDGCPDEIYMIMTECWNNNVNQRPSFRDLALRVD
Method: as §2

JAK3-JH1 = biological target: T4, JAK3-JH1 (Homo sapiens, UniProt P52333); assay: HTRF-based selectivity assay, JAK3 catalytic domain; format: biochemical; conditions: kinase domain (JH1), 2.12 μM ATP
T4 construct: using a recombinant purified His or GST-tagged catalytic domain for each enzyme; purchased Carna biosciences 08-046
T4 sequence (P52333 822-1111 limits assumed): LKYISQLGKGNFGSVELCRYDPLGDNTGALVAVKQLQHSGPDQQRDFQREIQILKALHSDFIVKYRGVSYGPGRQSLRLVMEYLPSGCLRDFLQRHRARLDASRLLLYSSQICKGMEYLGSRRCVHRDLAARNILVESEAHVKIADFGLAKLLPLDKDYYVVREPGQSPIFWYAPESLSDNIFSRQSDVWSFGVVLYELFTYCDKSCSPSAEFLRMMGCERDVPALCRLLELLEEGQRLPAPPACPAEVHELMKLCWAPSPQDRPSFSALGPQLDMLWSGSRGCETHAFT
Method: as §2

[3] = test system: HEK-Blue IL-2 reporter cells; assay: HEK-Blue IL-2 reporter assay (SEAP) for determining selectivity; format: cell-based; conditions: HEK-Blue IL-2 cells, 4 ng/ml human recombinant IL-2, SEAP reporter
Method: (§3) HEK-Blue™ IL-2 and IFNγ reporter cells with a stably-integrated cytokine receptor and STAT5 or STAT1 express STAT-inducible secreted embryonic alkaline phosphatase (SEAP) reporter gene upon cytokine stimulation. These cells were plated in DMEM (Gibco) containing 10% heat-inactivated FBS (Gibco) and 100 U/mL PenStrep (Gibco) at 37° C. under 5% CO2 conditions for 20-22 hours. The cells were then pretreated with serially diluted test compounds for 60 min prior to stimulation with either 4 ng/ml human recombinant IL-2 (Miltenyl Biotech) or 50 ng/ml human recombinant IFNγ (InvivoGen) for 24 hours. SEAP induction was measured using the QUANTI-Blue™ Solution (InvivoGen) according to the manufacturer's instructions.

[4] = test system: HEK-Blue IFNγ reporter cells; assay: HEK-Blue IFNγ reporter assay (SEAP) for determining selectivity; format: cell-based; conditions: 50 ng/ml human recombinant IFNγ, read-out: IFN-γ IC50 (SEAP selectivity)
Method: as §3

IC50 (TYK2 Pseudokinase (JH2) [1]) | IC50 (TYK2 Pseudokinase (JH2) [2]) | IC50 (TYK2-JH1) | IC50 (JAK1-JH1) | IC50 (JAK2-JH1) | IC50 (JAK3-JH1) | SMILES | IC50 [3] | IC50 [4]
< 30 nM | < 30 nM | > 1000 nM | 300 to 1000 nM | > 1000 nM | > 1000 nM | [2H]C([2H])([2H])NC(=O)c1cnc(NC(=O)C2CC2)cc1Nc1cccc2c1N(C)Cc1cncnc1-2 [Compound 4, 6-(cyclopropanecarboxamido)-N-(methyl-d3)-4-((6-methyl-5,6-dihydropyrimido[5,4-c]quinolin-7-yl)amino)nicotinamide] | > 1000 nM | > 1000 nM
< 30 nM | < 30 nM | – | – | – | – | [2H]C([2H])([2H])NC(=O)c1cnc(NC(=O)C2CC2)cc1Nc1nccc2c1N(C)Cc1cccnc1-2 [Compound 19, 6-(cyclopropanecarboxamido)-N-(methyl-d3)-4-((6-methyl-5,6-dihydropyrido[3,4-h][1,6]naphthyridin-7-yl)amino)nicotinamide] | > 1000 nM | 300 to 1000 nM
< 30 nM | 30 to 300 nM | – | – | – | – | [2H]C([2H])([2H])NC(=O)c1nnc(NC(=O)C2CC2)cc1Nc1cccc2c1N(C)C([2H])([2H])c1cc(F)cnc1-2 [Compound 21, 6-(cyclopropanecarboxamido)-4-((3-fluoro-6-methyl-5,6-dihydrobenzo[h][1,6]naphthyridin-7-yl-5,5-d2)amino)-N-(methyl-d3)pyridazine-3-carboxamide] | 300 to 1000 nM | 30 to 300 nM
< 30 nM | < 30 nM | > 1000 nM | > 1000 nM | > 1000 nM | > 1000 nM | [2H]C([2H])([2H])NC(=O)c1cnc(NC(=O)C2CC2)cc1Nc1cccc2c1N(C)Cc1nccnc1-2 [Compound 8, 6-(cyclopropanecarboxamido)-N-(methyl-d3)-4-((6-methyl-5,6-dihydropyrazino[2,3-c]quinolin-7-yl)amino)nicotinamide] | > 1000 nM | 30 to 300 nM
30 to 300 nM | 300 to 1000 nM | – | – | – | – | [2H]C([2H])([2H])NC(=O)c1cnc(NC(=O)C2CC2)cc1Nc1cccc2c1N(C)C([2H])([2H])c1ccc(C(F)(F)F)nc1-2 [Compound 25, 6-(cyclopropanecarboxamido)-N-(methyl-d3)-4-((6-methyl-2-(trifluoromethyl)-5,6-dihydrobenzo[h][1,6]naphthyridin-7-yl-5,5-d2)amino)nicotinamide] | – | –
< 30 nM | 30 to 300 nM | – | – | – | – | [2H]C([2H])([2H])NC(=O)c1cnc(NC(=O)C2CC2)cc1Nc1cccc2c1N(C)C([2H])([2H])c1cc(F)cnc1-2 [Compound 22, 6-(cyclopropanecarboxamido)-4-((3-fluoro-6-methyl-5,6-dihydrobenzo[h][1,6]naphthyridin-7-yl-5,5-d2)amino)-N-(methyl-d3)nicotinamide] | – | –
< 30 nM | < 30 nM | – | – | – | – | [2H]C([2H])([2H])NC(=O)c1cnc(NC(=O)C2CC2)cc1Nc1nccc2c1N(C)Cc1nccnc1-2 [Compound 14, 6-(cyclopropanecarboxamido)-N-(methyl-d3)-4-((6-methyl-5,6-dihydropyrazino[2,3-c][1,7]naphthyridin-7-yl)amino)nicotinamide] | > 1000 nM | –
< 30 nM | < 30 nM | – | – | – | – | [2H]C([2H])([2H])NC(=O)c1cnc(NC(=O)C2CC2)cc1Nc1cccc2c1N(C)C([2H])([2H])c1cccnc1-2 [Compound 20, 6-(cyclopropanecarboxamido)-N-(methyl-d3)-4-((6-methyl-5,6-dihydrobenzo[h][1,6]naphthyridin-7-yl-5,5-d2)amino)nicotinamide] | > 1000 nM | 30 to 300 nM

The next lines start with the compound.

SMILES | IC50 (TYK2 Pseudokinase (JH2) [1]) | IC50 (TYK2 Pseudokinase (JH2) [2]) | IC50 (TYK2-JH1) | IC50 (JAK1-JH1) | IC50 (JAK2-JH1) | IC50 (JAK3-JH1) | IC50 [3] | IC50 [4]
[2H]C([2H])([2H])NC(=O)c1nnc(NC(=O)C2CC2)cc1Nc1cccc2c1N(C)Cc1cc(F)cnc1-2 [Compound 7, 6-(cyclopropanecarboxamido)-4-((3-fluoro-6-methyl-5,6-dihydrobenzo[h][1,6]naphthyridin-7-yl)amino)-N-(methyl-d3)pyridazine-3-carboxamide] | < 30 nM | 30 to 300 nM | > 1000 nM | > 1000 nM | > 1000 nM | > 1000 nM | 300 to 1000 nM | 30 to 300 nM
[2H]C([2H])([2H])NC(=O)c1nnc(NC(=O)C2CC2)cc1Nc1cccc2c1N(C)Cc1cnn(C)c(=O)c1-2 [Compound 27, 6-(cyclopropanecarboxamido)-4-((2,6-dimethyl-1-oxo-1,2,5,6-tetrahydropyridazino[4,5-c]quinolin-7-yl)amino)-N-(methyl-d3)pyridazine-3-carboxamide] | < 30 nM | < 30 nM | > 1000 nM | > 1000 nM | > 1000 nM | > 1000 nM | 300 to 1000 nM | 30 to 300 nM
[2H]C([2H])([2H])NC(=O)c1nnc(NC(=O)C2CC2)cc1Nc1cccc2c1N(C)C([2H])([2H])c1ccc(C(F)(F)F)nc1-2 [Compound 26, 6-(cyclopropanecarboxamido)-N-(methyl-d3)-4-((6-methyl-2-(trifluoromethyl)-5,6-dihydrobenzo[h][1,6]naphthyridin-7-yl-5,5-d2)amino)pyridazine-3-carboxamide] | 300 to 1000 nM | > 1000 nM | – | – | – | – | > 1000 nM | 30 to 300 nM
[2H]C([2H])([2H])NC(=O)c1nnc(NC(=O)C2CC2)cc1Nc1cccc2c1N(C)C([2H])([2H])c1ccc(C)nc1-2 [Compound 23, 6-(cyclopropanecarboxamido)-4-((2,6-dimethyl-5,6-dihydrobenzo[h][1,6]naphthyridin-7-yl-5,5-d2)amino)-N-(methyl-d3)pyridazine-3-carboxamide] | < 30 nM | < 30 nM | – | – | – | – | > 1000 nM | 30 to 300 nM
[2H]C([2H])([2H])NC(=O)c1cnc(NC(=O)C2CC2)cc1Nc1cccc2c1N(C)C([2H])([2H])c1ccc(C)nc1-2 [Compound 24, 6-(cyclopropanecarboxamido)-4-((2,6-dimethyl-5,6-dihydrobenzo[h][1,6]naphthyridin-7-yl-5,5-d2)amino)-N-(methyl-d3)nicotinamide] | < 30 nM | 30 to 300 nM | – | – | – | – | > 1000 nM | > 1000 nM
CNC(=O)c1cnc(NC(=O)C2CC2)cc1Nc1cccc2c1N(C)Cc1cccnc1-2 [Compound 15, 6-(cyclopropanecarboxamido)-N-methyl-4-((6-methyl-5,6-dihydrobenzo[h][1,6]naphthyridin-7-yl)amino)nicotinamide] | < 30 nM | < 30 nM | – | – | – | – | > 1000 nM | 30 to 300 nM
